Data published in US20100069502A1, “Assay” (priority 2006, published 2010).

Legend:
Assay type in all cases: cell-based
PPM phosphatase [1] = assay: Mg2+ dependent, okadaic acid resistant casein phosphatase (PPM phosphatase) activity in HEK293 cell lysates; conditions: HEK293 cells, 2 mM metformin
Description: (§1) A PPM phosphatase activity in treated and untreated HEK293 cell lysates using casein as substrate in the presence of 10 mM MgAc and 5 μM okadaic acid. Data are mean±SEM with five independent samples measured in duplicate. (p<0.001). B PPM phosphatase activity in treated and untreated HeLa cell lysates using casein as substrate in the presence of 10 mM MgAc and 5 μM okadaic acid. Data are mean±SEM with four independent samples measured in duplicate. (p<0.001).
(§2) To study the effects of biguanide on the activity of protein phosphatases, HEK293 cell lysates either untreated or treated with biguanide (10 mM phenformin in this example—as described above) were either immunoblotted or assayed for specific protein phosphatase activity by using combinations of phosphatase inhibitors and activators, as well as different phosphorylated substrates.
(§3) The activity of PP2C (PPM1) and related members of the PPM family was assessed using ^32P-labelled casein as substrate with 5 μM okadaic acid included in the reaction to inhibit PP2A, and 10 mM magnesium acetate, which is known to be required for the activity of PP2C (Ingebritsen and Cohen, 1983 Science vol 221, pp 331-338; Ingebritsen et al., 1983 Eur J Biochem vol 132, pp 263-274).

PPM1E = target: T1, PPM1E (Homo sapiens, UniProt Q8WY54); assay: Activity of PPM phosphatase immunoprecipitated from HEK293 cell lysates, casein substrate; conditions: HEK293 cells, 2 mM metformin for 10 minutes prior to lysis
T1 construct: The PPM1A1 and PPM1E isoforms were immunoprecipitated in triplicate from untreated or metformin-treated HEK293 cell lysates; endogenous in cells; host or cells: HEK293
T1 sequence (Q8WY54 1-755): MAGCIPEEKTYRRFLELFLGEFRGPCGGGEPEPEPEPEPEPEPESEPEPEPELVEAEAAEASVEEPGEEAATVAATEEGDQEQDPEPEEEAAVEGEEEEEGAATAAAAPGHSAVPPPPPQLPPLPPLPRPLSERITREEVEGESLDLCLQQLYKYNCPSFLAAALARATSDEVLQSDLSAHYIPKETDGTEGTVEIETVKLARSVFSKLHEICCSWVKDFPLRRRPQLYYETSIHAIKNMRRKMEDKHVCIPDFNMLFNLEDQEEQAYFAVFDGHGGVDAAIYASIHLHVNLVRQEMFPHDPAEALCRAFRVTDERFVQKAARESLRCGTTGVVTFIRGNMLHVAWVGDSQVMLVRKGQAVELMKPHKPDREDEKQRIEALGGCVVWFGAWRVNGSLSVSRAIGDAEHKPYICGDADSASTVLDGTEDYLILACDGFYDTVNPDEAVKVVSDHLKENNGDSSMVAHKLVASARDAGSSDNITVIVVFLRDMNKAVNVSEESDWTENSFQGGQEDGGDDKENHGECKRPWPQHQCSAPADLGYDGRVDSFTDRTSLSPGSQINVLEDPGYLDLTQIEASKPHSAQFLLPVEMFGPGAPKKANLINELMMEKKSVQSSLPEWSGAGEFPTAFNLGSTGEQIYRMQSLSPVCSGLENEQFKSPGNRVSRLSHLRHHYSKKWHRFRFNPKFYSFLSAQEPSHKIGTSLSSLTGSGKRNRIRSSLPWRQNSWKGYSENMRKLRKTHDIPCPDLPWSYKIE
Description: PPM1E is immunopelleted with antibodies raised the amino acid sequence […] and the phosphatase activity in the immunopellet is measured in a protein phosphatase assay using 32P-labelled casein as substrate in the presence of 10 mM Mg2+ or Mn2+ ions and 5 μM okadaic acid.
(§4) PPM phosphatase activity in HEK293 cell lysates either untreated or treated with 10 mM phenformin for 1 hour. Individual isoforms were immunoprecipitated from control or phenformin-treated cell lysates and activity measured using ^32P labelled casein as substrate in the presence of 10 mM MgAc and […] acid. Data are mean activities for assays performed in triplicate.
(§5) To determine with greater certainty which PPM phosphatases are affected by biguanide, the PPM phosphatase activity associated with each of the PPM enzymes was assessed. […] No change could be detected in the PPM phosphatases associated with PPM1A1, PPM1B1, PPM1B2, PPM1D, PPM1G, ILKAP, Nerpp, PDPC1 or PDPC2. […] Following immunoprecipitation and immunoblotting of the PPM1E immunoprecipitate from untreated HEK293 cells, no signal could be detected using an antibody directed against PPM1E.
HEK293 cells were treated with 2 mM metformin for 10 minutes prior to lysis. […] Control immunoprecipitations were preformed in triplicate for each lysate using pre-immune antibody and subtracted from the activity calculated for the PPM phosphatase immunoprecipitations. […]

PPM phosphatase [2] = assay: Mg2+ dependent, okadaic acid resistant casein phosphatase (PPM phosphatase) activity in HeLa cell lysates; conditions: HeLa cells, 2 mM metformin
Description: as §1, §3
To test whether phenformin is able to have similar effects in this cell line, PPM phosphatase activity in HeLa cells either untreated or treated with 10 mM phenformin was assessed. Again, a ˜20% decrease in PPM phosphatase activity could be observed in cells treated with phenformin (FIG. 2B). In this experiment, the activity of many PP2C isoforms is measured, and the 20% decrease observed may represent a more severe decrease in activity of only one such isoform.

PP5 = PP5 levels by immunoblotting in HEK293 cell lysates; conditions: HEK293 cells, 10 mM phenformin, antibody against TPR domains
Description: as §2
Since the activity of PP5 in HEK293 cells is low, the levels of PP5 were assessed by immunoblotting using an antibody against the TPR domains of the protein.

PP1 = PP1 phosphorylase phosphatase activity in HEK293 cell lysates; conditions: 10 mM phenformin, 32P-labelled phosphorylase a, 4 mM okadaic acid
Description: (§6) A Levels of phosphorylation of AMPK at Thr172 in 4 untreated and 4 treated samples. Anti-PP5 TPR domain antibody is used as a loading control. Molecular weights (kDa) are indicated to the left of the panels. B PP1 phosphorylase phosphatase activity in treated and untreated HEK293 cell lysates using phosphorylase a as substrate, in the presence of 4 nM okadaic acid. Data are mean±SEM for four samples measured in triplicate. C PP2A phosphorylase phosphatase activity in treated and untreated HEK293 cell lysates using phosphorylase a as substrate, in the presence of 200 nM I-2. Data are mean±SEM for four samples measured in triplicate. […]
The activity of PP1 in response to phenformin was assessed using ^32P-labelled phosphorylase a as substrate with […] okadaic acid included in the reaction in order to inhibit the activity of PP2A and EGTA (0.1-2 mM) to inhibit metal ion activated protein phosphatases. No change in PP1 phosphorylase phosphatase activity could be detected between unstimulated and 10 mM-phenformin stimulated cell lysates (FIG. 1B).

PP2A = PP2A phosphorylase phosphatase activity in HEK293 cell lysates; conditions: 10 mM phenformin, 32P labelled phosphorylase a, 200 nM I-2
Description: as §6
The activity of PP2A in response to phenformin was also assessed using ^32P labelled phosphorylase a as substrate, but for this assay 200 nM I-2 and EGTA (0.1-2 mM) to inhibit metal ion activated protein phosphatases was included to inhibit PP1. No change in the PP2A phosphorylase phosphatase activity could be detected between unstimulated and 10 mM-phenformin stimulated cell lysates (FIG. 1C).

PPM1F = target: T2, PPM1F (Homo sapiens, UniProt P49593); assay: Activity of PPM phosphatase immunoprecipitated from HEK293 cell lysates, casein substrate
T2 construct: endogenous in cells; host or cells: HEK293
T2 sequence (P49593 1-454): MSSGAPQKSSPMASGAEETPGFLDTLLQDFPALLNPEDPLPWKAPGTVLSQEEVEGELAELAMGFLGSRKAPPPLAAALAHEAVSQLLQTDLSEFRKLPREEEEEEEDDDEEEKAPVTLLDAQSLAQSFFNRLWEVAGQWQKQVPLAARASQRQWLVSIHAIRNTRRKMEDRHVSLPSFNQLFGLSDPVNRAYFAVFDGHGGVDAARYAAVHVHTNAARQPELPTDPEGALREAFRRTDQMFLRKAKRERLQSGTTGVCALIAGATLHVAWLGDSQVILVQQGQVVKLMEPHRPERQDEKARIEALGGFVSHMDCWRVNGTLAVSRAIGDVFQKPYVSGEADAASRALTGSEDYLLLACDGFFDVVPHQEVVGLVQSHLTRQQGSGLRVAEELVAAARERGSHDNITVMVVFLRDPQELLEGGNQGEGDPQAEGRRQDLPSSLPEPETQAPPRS
Description: PPM1F is immunopelleted with antibodies raised the amino acid sequence […] and the phosphatase activity in the immunopellet is measured in a protein phosphatase assay using 32P-labelled casein as substrate in the presence of 10 mM Mg2+ or Mn2+ ions and 5 μM okadaic acid.
as §4
as §5, with “assessed. In this example, the biguanides are metformin and phenformin.” for “assessed.”

SMILES | decrease in PPM phosphatase activity (PPM phosphatase [1]) [%] | activity of immunoprecipitated PPM1E (PPM1E) | activity of immunoprecipitated PPM1E (PPM1E; listed as Metformin) | decrease in PPM phosphatase activity (PPM phosphatase [2]) [%] | levels of PP5 (PP5) | PP1 phosphorylase phosphatase activity (PP1) | PP2A phosphorylase phosphatase activity (PP2A) | activity of immunoprecipitated PPM1F, % of the levels of untreated cells (PPM1F; HEK293 cells treated with phenformin) [%] | decrease in activity of immunoprecipitated PPM1F (PPM1F; HEK293 cells, 10 mM phenformin) [%]
CN(C)C(=N)N=C(N)N [metformin, 1-(diaminomethylidene)-3,3-dimethyl-guanidine] | 20 | almost completely ablated | Substantial specific knockdown | 20 | – | – | – | – | –
[H]/N=C(/N)N/C(=N/[H])NCCc1ccccc1 [phenformin, phenylethylbiguanide] | – | – | – | – | no effect | no effect | no effect | ~60 | ~40
